Series [1] relates to E. coli urine isolate EC235. Description: Minimum inhibitory concentration (MIC). Conditions: Escherichia coli, read-out: Minimum inhibitory concentration (MIC).
Series [2] has as its system CR-K. pneumoniae (ATCC BAA-1705). Description: Minimum inhibitory concentration (MIC). Particulars: for Minimum inhibitory concentration (MIC): CR-K. pneumoniae ATCC BAA-1705, PAβN + (40 μg/mL); for MIC: Klebsiella pneumoniae.
For series [3], the system named is E. coli urine isolate EC236. Description: Minimum inhibitory concentration (MIC). Particulars: Escherichia coli, read-out: Minimum inhibitory concentration (MIC).
Series [4] deals with K. pneumoniae Kp233. Description: Minimum inhibitory concentration (MIC). Particulars: for MIC: Klebsiella pneumoniae.
For series [5], the system named is K. pneumoniae strain BAA-1705. Description: High-throughput screen / dose-response based on mannose fermentation. Conditions: for Inhibition of mannose fermentation: 22 hours, pH-DM, concentrations similar to primary and cherry-pick screens.
In series [6] the test system is Kp233/pJBA110. Description: GFP fluorescence assay (protein synthesis). Conditions: highest concentration used (100 μg/mL), 15 hr.
The subject of series [7] is A. baumanii. Description: Minimum inhibitory concentration (MIC). Conditions: for Minimum inhibitory concentration (MIC): A. baumanii, PAβN + (40 μg/mL); for MIC: Acinetobacter baumannii, read-out: Minimum inhibitory concentration (MIC).
Series [8] has as its system resistant GNR. Description: MIC with and without efflux pump inhibitor PAβN, resistant GNR as a group.
Series [9] deals with HeLa S3 cells. Description: Alamar Blue assay for cytotoxicity. Format: cell-based, human. Conditions: 20 hours. The method, then:
Alamar Blue assay for cytotoxicity. HeLa S3 cells were cultured in Dulbecco's modified Eagle medium supplemented with 10% fetal bovine serum, 100 U/mL penicillin, and 100 μg/mL streptomycin. Each well of a 96-well microtiter plate (Nunclon Delta Surface, Thermo Scientific) was seeded with 10,000 cells in 100 μL of culture medium. Cells were incubated for 18 hr in a humidified incubator at 37° C. with 5% CO2 to allow attachment. Compounds were added to the adherent cells to yield a final concentration of 13 and 107 μg/mL. Positive control wells contained 0.1% Triton X-100, carrier control wells contained DMSO, and negative control wells contained medium and cells without DMSO. After addition of compounds, 0.1% Triton, or DMSO, plates were returned to the incubator. Cell viability was measured by resazurin reduction. Alamar Blue reagent (Invitrogen) was added to the cells after a 1.5 hr incubation with the test compounds. Cells were incubated for 20 hr, and then fluorescence was measured using the Infinite 200 (Tecan) with excitation and emission wavelengths of 550 nm and 590 nm, respectively. To calculate viability, the average fluorescence value of Triton-treated positive control wells was subtracted from that of untreated wells or wells containing test compounds. These values were then divided by the average fluorescence of untreated wells to give cell viability as a percentage of the negative control.
(In general: Alamar Blue is a resazurin reagent that responds to reducing activity.)

The subject of series [10] is P. aeruginosa PA01. Description: Minimum inhibitory concentration (MIC). Particulars: for Minimum inhibitory concentration (MIC): P. aeruginosa PA01, PAβN + (40 μg/mL); for MIC: Pseudomonas aeruginosa, PA01, read-out: Minimum inhibitory concentration (MIC).
Series [11] in a line: Particulate matter in aqueous media (micrographs). In kind it is physicochemical. Particulars: 100 μg/mL in culture medium. The method, then:
(§1) Morphometric analysis. Carbapenem-susceptible Kp233 were treated as described for stationary phase viability assays, with the exception that negative control wells contained no DMSO and no antimicrobials. Ampicillin (150 μg/mL) was used as a positive control. Cells were incubated statically at 37° C. for 4 hr. Thirty μL from each well was transferred into a 24-well plate filled with 300 μL of LB broth. Images were captured with a 40× magnification lens using a Nikon Eclipse TE2000-E microscope. Morphometric analysis was carried out using IPLab 4.0 software.

Series [12] relates to Group A streptococcus. Description: Minimum inhibitory concentration (MIC). Conditions: read-out: Minimum inhibitory concentration (MIC).
For series [13], the system named is CR K. pneumoniae strain BAA-1705. Description: Dose-response growth inhibition (viable cell counts in LB broth). Particulars: 22 hr in LB broth, concentrations tested 0.78-50 μg/mL.
Series [14] has as its system K. pneumoniae (Kp233). Description: Morphometric analysis by phase contrast microscopy. Format: cell-based, Klebsiella pneumoniae. Conditions: stationary phase cells, 4 hr; compounds 100 μl/mI alone or with PAβN, ampicillin 150 μg/mL. The procedure:
as §1

The subject of series [15] is MRSA. Description: Minimum inhibitory concentration (MIC). Particulars: Staphylococcus aureus, read-out: Minimum inhibitory concentration (MIC).
Series [16] addresses LmGT2 (Leishmania mexicana, UniProt O61059). Particulars: high-throughput screen, PubChem BioAssay; cited from earlier work.
Series [17] concerns K. pneumoniae (Kp233). Description: Compound impact on bacterial viability (exponential and stationary phase). Format: cell-based, Klebsiella pneumoniae. Conditions: 4 hr. The procedure:
Compound impact on bacterial viability. […] One hundred μL of each compound preparation was dispensed into the wells of a microtiter plate. Negative (untreated) wells contained LB with or without PAβN only. Stationary phase cell viability. A glycerol stock of the carbapenem-susceptible clinical strain of K. pneumoniae (Kp233) was inoculated into 1.5 mL of LB and incubated overnight (approximately 18 hr) at 37° C. with shaking. […] Cells were incubated statically at 37° C. for 4 hr, and viable counts were determined by plating. Exponential phase cell viability. Overnight cultures of Kp233 were diluted 1:5,000 into 50 mL of LB broth and incubated at 37° C. with shaking at 200 rpm. […] These cells were also washed twice with NS and inoculated into the wells of a microtiter plate prepared as described above. Cells were incubated statically at 37° C. for 4 hr, and viable counts were determined by plating.

Series [18] concerns the target T1, Glut1 (Homo sapiens, UniProt P11166).
T1 sequence (P11166 1-492): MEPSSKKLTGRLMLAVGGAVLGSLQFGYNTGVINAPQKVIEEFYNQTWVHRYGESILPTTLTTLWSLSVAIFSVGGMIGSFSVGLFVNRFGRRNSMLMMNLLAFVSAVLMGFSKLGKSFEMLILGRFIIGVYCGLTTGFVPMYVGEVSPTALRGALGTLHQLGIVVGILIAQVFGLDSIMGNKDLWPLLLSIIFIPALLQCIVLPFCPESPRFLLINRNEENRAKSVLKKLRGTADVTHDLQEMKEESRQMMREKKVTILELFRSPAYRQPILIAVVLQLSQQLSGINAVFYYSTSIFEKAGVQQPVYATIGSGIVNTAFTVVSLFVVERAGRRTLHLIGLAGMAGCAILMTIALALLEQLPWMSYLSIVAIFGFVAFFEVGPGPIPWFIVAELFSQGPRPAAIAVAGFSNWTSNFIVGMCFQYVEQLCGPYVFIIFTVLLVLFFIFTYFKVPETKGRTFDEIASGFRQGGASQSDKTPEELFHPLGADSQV
Conditions: high-throughput screen, PubChem BioAssay; cited from earlier work.

[19] abbreviates: ATCCBAA1705, read-out: Minimum inhibitory concentration (MIC).
Setting [20] is: KP233, read-out: Minimum inhibitory concentration (MIC).

≈ marks a conversion by molar mass, not a printed value. Entries after “also recorded” stand apart in the source; their conditions may differ. Like-named read-outs stand apart in the source and are kept apart here.

Sequence of LmGT2 (O61059 entry or part of it): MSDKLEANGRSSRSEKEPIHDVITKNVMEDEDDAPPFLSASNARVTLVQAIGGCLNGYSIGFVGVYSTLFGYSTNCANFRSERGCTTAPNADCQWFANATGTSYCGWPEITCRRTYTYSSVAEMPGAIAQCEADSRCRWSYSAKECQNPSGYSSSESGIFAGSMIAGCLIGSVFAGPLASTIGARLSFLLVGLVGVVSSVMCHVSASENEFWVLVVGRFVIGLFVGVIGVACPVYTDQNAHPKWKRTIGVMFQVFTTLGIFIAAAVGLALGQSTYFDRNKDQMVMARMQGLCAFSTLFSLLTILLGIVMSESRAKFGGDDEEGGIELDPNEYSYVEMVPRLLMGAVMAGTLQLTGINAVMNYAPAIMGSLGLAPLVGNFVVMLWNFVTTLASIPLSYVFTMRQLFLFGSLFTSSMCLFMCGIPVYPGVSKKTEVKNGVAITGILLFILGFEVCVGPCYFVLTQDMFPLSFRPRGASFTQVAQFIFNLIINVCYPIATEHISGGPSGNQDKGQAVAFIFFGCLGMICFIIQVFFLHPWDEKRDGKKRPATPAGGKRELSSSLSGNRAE

For the compound `O=C(N[C@H](CO)[C@H](O)c1ccc([N+](=O)[O-])cc1)C(Cl)Cl` [Cm, chloramphenicol, reference compound], the MIC was less than 9 µg/mL in series [1], 1250 µg/mL (≈ 3870 µM) in [2] (setting [19]), less than 9 µg/mL in [3] and less than 9 µg/mL in series [4] (setting [20]). For the same compound, the “Minimum inhibitory concentration (MIC)” value in series [2] turned out to be 39 µg/mL. The “Reduction of MIC by PAβN” value in series [2] (K. pneumoniae, with PAβN versus without) was 32 fold.
Take `Cc1nnc(SCC2=NN(c3nc4ccccc4[nH]3)C(=O)C2)s1` [Compound C17]: the “Inhibition of mannose fermentation” value in series [5] is “inhibited fermentation”. For the same compound, in series [5] (dispensed by HP D300 digital dispenser), the “Activity in cherry-pick re-test” value is “significant activity”. For the same compound, the MIC in series [1] was 96 µg/mL (≈ 279 µM); in [7], more than 96 µg/mL; in series [10], more than 96 µg/mL; in series [2] (setting [19]), 96 µg/mL (≈ 279 µM); in series [3], 96 µg/mL (≈ 279 µM); in series [4] (setting [20]), 48 µg/mL (≈ 139 µM). Also, the values for the MIC in series [12] and in series [15] were 96 µg/mL (≈ 279 µM) and 24 µg/mL (≈ 69.7 µM), respectively. Further, the “Bacterial growth (OD) and GFP fluorescence” value in [6] was “decreased both bacterial growth and protein synthesis”. Moreover, the “Minimum inhibitory concentration (MIC)” value in series [7] came to 24 µg/mL; in series [10] it was 48 µg/mL; in series [2] it was 48 µg/mL. Besides, the “Change of MIC on addition of PAβN (in words)” value in series [8] is “minimally decreased”. For the same compound, the “Toxicity to HeLa S3 cells (viability by resazurin reduction)” value in series [9] (13 and 107 μg/mL) is “least toxic; also recorded: not toxic”. The “Particulate matter in micrographs (insolubility in aqueous media)” value in series [11] is recorded as “not”. Besides, the “Growth inhibition (CFU/ml)” value in [13] is on record as “inhibited growth”. The “Cell shape / average particle size” value in [14] is reported as “do not significantly alter cell shape”.
For the compound `Cc1nn2c(=O)cc(-c3ccc(F)cc3)[nH]c2c1-c1ccccc1` [Compound F02], the “Toxicity to HeLa S3 cells (viability by resazurin reduction)” value in series [9] (higher concentration (107 μg/mL)) is “moderately toxic”.
Turning to `Clc1cc(Br)ccc1-c1ccc(CNCC2CCNCC2)o1` [Compound O06], the “Inhibition of mannose fermentation” value in series [5] is reported as “inhibited fermentation”. Moreover, the MIC in [1] was 96 µg/mL (≈ 250 µM); in series [7] it was 48 µg/mL (≈ 125 µM); in series [10] it was more than 96 µg/mL; in series [2] (setting [19]), 96 µg/mL (≈ 250 µM); in series [3], 96 µg/mL (≈ 250 µM); in series [4] (setting [20]), 96 µg/mL (≈ 250 µM). The MIC in [12] and in [15] was 48 µg/mL (≈ 125 µM) in each case. Besides, in series [6], the “Bacterial growth (OD) and GFP fluorescence” value is “decreased both bacterial growth and protein synthesis”. Moreover, the “Minimum inhibitory concentration (MIC)” value in series [7] turned out to be 24 µg/mL; in series [10] it was 24 µg/mL; in [2], 96 µg/mL. Besides, the “Change of MIC on addition of PAβN (in words)” value in series [8] is on record as “minimally decreased”. Further, in series [9] (13 and 107 μg/mL), the “Toxicity to HeLa S3 cells (viability by resazurin reduction)” value is “most toxic”. Moreover, the “Particulate matter in micrographs (insolubility in aqueous media)” value in series [11] is recorded as “not”. Moreover, the “Activity in screen for LmGT2 inhibitors” value in [16] was “active”. Further, the “Cell shape / average particle size” value in [14] is recorded as “do not significantly alter cell shape”. Also, the “Bacterial viability (CFU) with efflux pump inhibition” value in series [17] (100 μg/mL compound + PAβN 40 μg/ml, exponential and stationary phase) is “significantly potentiated the killing activity; also recorded: significantly decrease the viability”. Also, the “Bacterial viability (CFU)” value in series [17] (100 μg/mL compound alone, exponential and stationary phase) is listed as “decreased the viability”. Further, in [18], the “Activity in screen for Glut1 inhibitors” value was “active”.
For `C[C@H]1COc2c(N3CCN(C)CC3)c(F)cc3c(=O)c(C(=O)O)cn1c23` [Lev, levofloxacin, reference compound], the MIC is 0.015 µg/mL (≈ 0.0415 µM) in series [1], 0.25 µg/mL (≈ 0.692 µM) in series [10], 0.015 µg/mL (≈ 0.0415 µM) in series [3] and 0.031 µg/mL (≈ 0.0858 µM) in series [4] (setting [20]). Moreover, in [10], the “Minimum inhibitory concentration (MIC)” value was determined as 0.015 µg/mL. Further, the “Reduction of MIC by PAβN” value in [10] (P. aeruginosa, with PAβN versus without) is on record as 16 fold.
Take `CC1(C)S[C@@H]2[C@H](NC(=O)[C@H](N)c3ccccc3)C(=O)N2[C@H]1C(=O)O` [ampicillin, reference compound]: the “Cell shape / average particle size” value in [14] is listed as “formed filaments with significantly increased average particle size”.
In the case of `O=C1C=C2C(=CCOC2O)O1` (centres unmarked) [patulin, reference compound], the MIC in series [2] (ATCCBAA1705, read-out: Minimum inhibitory concentration, CR-K. pneumoniae ATCC BAA-1705, Defined Medium) was 9.38 µg/mL (≈ 60.9 µM); in series [2] (ATCCBAA1705, read-out: Minimum inhibitory concentration, CR-K. pneumoniae ATCC BAA-1705, LB broth (rich medium)), 18.8 µg/mL (≈ 122 µM); in series [4] (KP233, read-out: Minimum inhibitory concentration), 9.38 µg/mL (≈ 60.9 µM). This compound showed a Minimum inhibitory concentration in series [4] (K. pneumoniae Kp233, Defined Medium) of 9.38 µg/mL (≈ 60.9 µM).
Regarding “phenylalanine-arginine β-naphthylamide [PAβN, reference compound]”, the “Bacterial viability (CFU)” value in [17] (PAβN 40 μg/mL alone, exponential or stationary phase) is reported as “did not decrease the viability”.

(Values after patent publication US12377079B2, “Antibacterial compounds and uses thereof” (The Children's Medical Center Corporation, priority 2018, dated 2025).)
